Data: patent US20110076693A1, “METHOD FOR DETECTION AND QUANTIFICATION OF PLK1 EXPRESSION AND ACTIVITY” (The U.S.A. as Represented by the Secretary , Dept.of Health …, priority 2008, published 2011)

Key:
PBD of Plk1 = molecular target: T1, PBD of Plk1 (Homo sapiens, UniProt P53350); assay: Binding of Plk1-phosphorylated 32P-PBIPtide-A6 to bead-bound GST-PBD; settings: GST-PBD vs GST-PBD (H538A K540M), TBSN buffer, 1 hour at 4° C.
T1 construct: made in house

Plk1 [1] = assay: Direct Plk1 kinase assay with total HeLa lysates and [γ-32P]ATP using GST-PBIPtides as substrate; format: biochemical, human; settings: shPlk1 HeLa lysates, compared with PBIPtide4
Protocol: FIGS. 1A-1B are digital images of Western blots, a schematic representation of a kinase assay and a set of bar graphs showing that a peptide that contains the T78 motif of PBIP1 (a PBIPtide) can be used to quantitate the kinase activity of Plk1 in vitro. […] FIG. 1A Left, mitotic HeLa lysates were incubated with either bead-immobilized control glutathione S-transferase (GST) or GST-PBIPtide4 in TBSN buffer containing phosphatase inhibitors. Beads were precipitated and washed and then subjected to in vitro kinase assays in the presence of [γ-^32P]-ATP. Samples were separated by sodium dodecyl sulfate polyacrylamide gel electrophoresis (SDS/PAGE), transferred to polyvinylidene fluoride (PVDF), and then exposed (Autorad). The membrane was immunoblotted with the indicated antibodies and then stained with Coomassie (CBB). Note that the anti-p-T78 signal (α-p-T78 panel) is relatively weak because the incubation was carried out in TBSN at 4° C. FIG. 1A Right is schematic diagram illustrating the experimental procedures described in FIG. 1A Left. The ellipsoids depict bead-associated GST-PBIPtide containing the T78 motif. […] The GST-PBIPtide bands were excised, and incorporated 32P was quantified. […]
It was then determined whether the Plk1 activity present in total cellular lysates could be directly measured by incubating the lysates with GST-PBIPtide. […]

Plk1 [2] = assay: PBIPtide-based Plk1 ELISA with shLuc/shPlk1 HeLa lysates; settings: compared with PBIPtide4
Protocol: The ELISA wells were coated with soluble GST-PBIPtide containing the T78 motif and then reacted with total cellular lysates. The Plk1 activity in the total lysates generates the p-T78 epitope to which Plk1 itself binds. After reaction, Plk1 activity is quantified by incubating the ELISA wells with either anti-p-T78 antibody (to detect the p-T78 epitope generated) or anti-Plk1 antibody (to detect Plk1 bound to the p-T78 epitope), followed by HRP-conjugated secondary antibody (the grey antibody with a black dot). The asterisks indicate 3.3′, 5.5′-tetramethylbenzidine (TMB) substrate and its reaction product, generated by HRP. […] HeLa cells were silenced for control luciferase (shLuc) or Plk1 (shPlk1) and then treated with nocodazole for 16 hours to arrest the cells in prometaphase (a condition that maximizes Plk1 activity). […] Buffer indicates no-lysate control. The same lysates were subjected to immunoblotting analysis to determine the level of Plk1 in the lysates. […] GST-PBIPtide-A6-coated ELISA wells were incubated with the indicated amount of recombinant Plk1 purified from Sf9 cells. The level of the p-T78 epitope generated and the amount of Plk1 bound to the p-T78 GST-PBIPtide-A6 were quantified by using anti-p-T78 and anti-Plk1 antibodies, respectively. […] Total lysates were prepared from these cells and applied to the GST-PBIPtide-A6-coated wells. Buffer indicates no-lysate control. […]

T1 sequence (P53350 326-603 limits assumed): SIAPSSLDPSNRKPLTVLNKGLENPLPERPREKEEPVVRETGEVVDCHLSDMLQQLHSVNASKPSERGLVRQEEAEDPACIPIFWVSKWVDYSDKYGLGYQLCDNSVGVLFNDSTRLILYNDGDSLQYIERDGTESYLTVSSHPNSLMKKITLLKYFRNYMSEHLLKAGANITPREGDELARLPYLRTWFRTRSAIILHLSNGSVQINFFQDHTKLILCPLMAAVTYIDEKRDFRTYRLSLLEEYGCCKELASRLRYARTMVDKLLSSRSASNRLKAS

Substance: GST-PBIPtide-A6: N-terminal GST fusion of SEQ ID NO: 8; 6 repeats of the PBIPtide (Y68F T70A Y81F) triple mutant joined by GGPGG linkers
- PBD binding after Plk1-dependent phosphorylation of the T78 motif (PBD of Plk1): sufficient for the PBD binding
- Level of 32P incorporation after Plk1 depletion (Plk1 [1]): mildly, but reproducibly, lower level
- Sensitivity to Plk1 activity (Plk1 [2]): mildly, but reproducibly, increased sensitivity
